In patent US20250228242A1 (priority 2021, published 2025):
Counter-ions that a name gives are not always drawn.

Test system: P. infestans
Experiment: whole plant or invertebrate
Type: in vivo
Settings: Phytophthora infestans, in Solanum tuberosum, read-out: P. infestans % inhibition

Structure (SMILES) | inhibition at 100 µM [%]
FC(F)(F)c1cccc(-c2nc(-c3cccc(Cl)c3)n[nH]2)c1 [Compound 161, 3-(3-Chlorophenyl)-5-[3-(trifluoromethyl)phenyl]-1H-1,2,4-triazole] | 50
CC(C)OC(=O)Nc1ccc(-c2nc(-c3cccc(C(F)(F)F)c3)no2)cc1 [Compound 75, Propan-2-yl (4-{3-[3-(trifluoromethyl)phenyl]-1,2,4-oxadiazol-5-yl}phenyl)carbamate] | 31
O=C(Nc1ccc(-c2cc(-c3cccc(OC(F)(F)F)c3)n[nH]2)cc1)C(F)(F)F [Compound 128, 2,2,2-Trifluoro-N-(4-{5-[3-(trifluoromethoxy)phenyl]-1H-pyrazol-3-yl}phenyl)acetamide] | 6
Fc1cccc(-c2c[nH]c(-c3cccc(C(F)(F)F)c3)n2)c1 [Compound 151, 4-(3-Fluorophenyl)-2-[3-(trifluoromethyl)phenyl]-1H-imidazole] | 85
COc1ccc(-c2nc(-c3ccc(C)c(C)c3)n[nH]2)cc1OC [Compound 160, 5-(3,4-Dimethoxyphenyl)-3-(3,4-dimethylphenyl)-1H-1,2,4-triazole] | 76
FC(F)(F)c1cccc(-c2cc(-c3ccc4c(c3)OCCO4)n[nH]2)c1 [Compound 71, 3-(2,3-Dihydro-1,4-benzodioxin-6-yl)-5-[3-(trifluoromethyl)phenyl]-1H-pyrazole] | 36
CCOC(=O)c1ccc(-c2ncc(-c3ccc(C)cc3)o2)cc1 [Compound 115, Ethyl 4-[5-(4-methylphenyl)-1,3-oxazol-2-yl]benzoate] | 12
COc1ccc(-c2c[nH]c(-c3cccc(N4CCOCC4)c3)n2)cc1OC [Compound 144, 4-{3-[4-(3,4-Dimethoxyphenyl)-1H-imidazol-2-yl]phenyl}morpholine] | 81
Clc1ccc(-c2cc(-c3ccc4c(c3)OCCO4)n[nH]2)cc1 [Compound 111, 5-(4-Chlorophenyl)-3-(2,3-dihydro-1,4-benzodioxin-6-yl)-1H-pyrazole] | 24
CCc1ccc(-c2nc(-c3ccc(OC(F)(F)F)cc3)c[nH]2)cc1 [Compound 66, 2-(4-Ethylphenyl)-4-[4-(trifluoromethoxy)phenyl]-1H-imidazole] | 29
CCOC(=O)c1cccc(-c2ncc(-c3ccc(C(F)(F)F)cc3OC)o2)c1 [Compound 121, Ethyl 3-{5-[2-methoxy-4-(trifluoromethyl)phenyl]-1,3-oxazol-2-yl}benzoate] | 28
FC(F)(F)Oc1ccc(-c2c[nH]c(-c3ccc(Br)cc3)n2)cc1 [Compound 84, 2-(4-Bromophenyl)-5-[4-(trifluoromethoxy)phenyl]-1H-imidazole] | 96
CCc1ccc(-c2c[nH]c(-c3ccc(NC(=O)OCCOC)cc3)n2)cc1 [Compound 154, 2-Methoxyethyl {4-[4-(4-ethylphenyl)-1H-imidazol-2-yl]phenyl}carbamate] | 89
COc1cccc(-c2nc(-c3ccc(F)cc3)no2)c1 [Compound 51, 3-(4-Fluorophenyl)-5-(3-methoxyphenyl)-1,2,4-oxadiazole] | 8
COCCNC(=O)Nc1ccc(-c2n[nH]c(-c3ccc(C(F)(F)F)cc3)n2)cc1 [Compound 82, 1-(2-Methoxyethyl)-3-(4-{5-[4-(trifluoromethyl)phenyl]-1H-1,2,4-triazol-3-yl}phenyl)urea] | 18
COc1cccc(-c2cnc(-c3cccc(Br)c3)[nH]2)c1 [Compound 86, 2-(3-Bromophenyl)-5-(3-methoxyphenyl)-1H-imidazole] | 75
Nc1ccc(-c2nc(-c3cccc(C(F)(F)F)c3)no2)cc1 [Compound 74, 5-(4-Aminophenyl)-3-[3-(trifluoromethyl)phenyl]-1,2,4-oxadiazole] | 18
CCSc1ccc(-c2cc(-c3ccccc3Cl)no2)cc1 [Compound 52, 3-(2-Chlorophenyl)-5-[4-(ethylsulfanyl)phenyl]-1,2-oxazole] | 9
N[C@@H](Cc1ccccc1)C(=O)Nc1cccc(-c2nc(-c3ccc(OC(F)(F)F)cc3)c[nH]2)c1 [Compound 141, (2S)-2-Amino-N-{3-[4-(4-trifluoromethoxyphenyl)-1H-imidazol-2-yl]phenyl}-3-phenylpropanamide hydrochloride] | 93
CCc1ccc(-c2c[nH]c(-c3ccc(NS(C)(=O)=O)cc3)n2)cc1 [Compound 152] | 91
O=C(O)c1cccc(-c2ncc(-c3ccc(C(F)(F)F)cc3O)o2)c1 [Compound 69, 3-{5-[2-Hydroxy-4-(trifluoromethyl)phenyl]-1,3-oxazol-2-yl}benzoic acid] | 99
c1cc2c(cc1-c1cnc(-c3ccc(N4CCOCC4)cc3)[nH]1)CCO2 [Compound 109, 4-{4-[5-(2,3-Dihydro-1-benzofuran-5-yl)-1H-imidazol-2-yl]phenyl}morpholine] | 11
Oc1ccc(-c2c[nH]c(-c3ccc(Cl)cc3)n2)cc1 [Compound 78, 2-(4-Chlorophenyl)-5-(4-hydroxyphenyl)-1H-imidazole] | 79

Structure (SMILES) | inhibition at 100 µM [%]
Cc1ccc(-c2cc(-c3ccc(NC(=O)[C@@H](N)CCC(N)=O)cc3)[nH]n2)cc1 [Compound 162, (2S)-2-Amino-N1-{4-[3-(4-methylphenyl)-1H-pyrazol-5-yl]phenyl}pentanediamide hydrochloride] | 34
Cc1ccc(-c2cnc(-c3ccc(C(=O)O)cc3)o2)cc1 [Compound 116, 4-[5-(4-Methylphenyl)-1,3-oxazol-2-yl]benzoic acid] | 72
Oc1cccc(-c2cnc(-c3cccc(Br)c3)[nH]2)c1 [Compound 87, 2-(3-Bromophenyl)-5-(3-hydroxyphenyl)-1H-imidazole] | 99
Nc1ccc(-c2cc(-c3ccccc3F)no2)cc1 [Compound 45, 5-(4-Aminophenyl)-3-(2-fluorophenyl)-isoxazole] | 76
Oc1ccc(F)cc1-c1c[nH]c(-c2ccc(C(F)(F)F)cc2)n1 [Compound 81, 5-(2-Hydroxy-5-fluorophenyl)-2-[4-(trifluoromethyl)phenyl]-1H-imidazole] | 10
Oc1cc(Cl)cc(-c2nc(-c3ccc(OC(F)(F)F)cc3)co2)c1 [Compound 132, 2-(3-Chloro-5-hydroxyphenyl)-4-[4-(trifluoromethoxy)phenyl]-1,3-oxazole] | 66
COc1ccc(S(=O)(=O)Nc2ccc(-c3coc(-c4ccc(OC(C)C)cc4)n3)cc2)cc1 [Compound 124] | 4
O=C(c1cccc(-c2nc(-c3cccc(F)c3)n[nH]2)c1)N1CCOCC1 [Compound 163, {3-[3-(3-Fluorophenyl)-1H-1,2,4-triazol-5-yl]phenyl}(morpholin-4-yl)methanone] | 22
COc1cc(-c2cc(-c3cccc(C(F)(F)F)c3)no2)ccc1Cl [Compound 48, 5-(4-Chloro-3-methoxyphenyl)-3-[3-(trifluoromethyl)phenyl]-isoxazole] | 21
Cc1ccc(-c2cc(-c3ccc(O)cc3)no2)cc1 [Compound 85, 3-(4-Hydroxyphenyl)-5-(4-methylphenyl)-1,2-oxazole] | 10
COc1ccc(-c2n[nH]c(-c3cccc(N(C)C)c3)n2)cc1OC [Compound 105, 3-[3-(3,4-Dimethoxyphenyl)-1H-1,2,4-triazol-5-yl]-N,N-dimethylaniline] | 77
Cc1ccc(NC(=O)c2cccc(Cl)c2)cc1-c1nc(-c2ccc(F)cc2)n[nH]1 [Compound 102, 3-Chloro-N-{3-[3-(4-fluorophenyl)-1H-1,2,4-triazol-5-yl]-4-methylphenyl}benzamide] | 30
O=C(Nc1ccccc1)Nc1ccc(-c2nc(-c3cccc(C(F)(F)F)c3)no2)cc1 [Compound 94, 1-Phenyl-3-(4-{3-[3-(trifluoromethyl)phenyl]-1,2,4-oxadiazol-5-yl}phenyl)urea] | 9
COc1ccc(-c2noc(-c3cccc(Cl)c3)n2)cc1 [Compound 67, 5-(3-Chlorophenyl)-3-(4-methoxyphenyl)-1,2,4-oxadiazole] | 55
COc1ccc(-c2noc(-c3ccccc3Br)n2)cc1 [Compound 68, 5-(2-Bromophenyl)-3-(4-methoxyphenyl)-1,2,4-oxadiazole] | 17
Cc1ccc(-c2n[nH]c(-c3cccc(NC(=O)[C@@H](N)CC(C)C)c3)n2)cc1 [Compound 159, (2S)-2-Amino-N-{3-[3-(4-methylphenyl)-1H-1,2,4-triazol-5-yl]phenyl}-4-methylpentanamide] | 97
O=S(=O)(Nc1ccc(-c2n[nH]c(-c3ccc(C(F)(F)F)cc3)n2)cc1)c1ccc(Cl)cc1 [Compound 92, 4-Chloro-N-(4-{5-[4-(trifluoromethyl)phenyl]-1H-1,2,4-triazol-3-yl}phenyl)benzenesulfonamide] | 84
Cc1ccc([N+](=O)[O-])cc1-c1nc(-c2ccc(F)cc2)n[nH]1 [Compound 99, 3-(4-Fluorophenyl)-5-(2-methyl-5-nitrophenyl)-1H-1,2,4-triazole] | 64
O=S(=O)(Nc1cccc(-c2nc(-c3ccc(OC(F)(F)F)cc3)c[nH]2)c1)c1ccc(Cl)cc1 [Compound 136, 4-Chloro-N-(3-{4-[4-(trifluoromethoxy)phenyl]-1H-imidazol-2-yl}phenyl)benzenesulfonamide] | 7
O=C(O)c1ccc(-c2nc(-c3ccc(N4CCCC4)cc3)c[nH]2)cc1 [Compound 135, 4-{4-[4-(Pyrrolidin-1-yl)phenyl]-1H-imidazol-2-yl}benzoic acid] | 51
CC(C)[C@H](N)C(=O)Nc1ccc(-c2cc(-c3cccc(F)c3)on2)cc1 [Compound 93, (2S)-2-Amino-N-{4-[5-(3-fluorophenyl)-1,2-oxazol-3-yl]phenyl}-3-methylbutanamide hydrochloride] | 95
Cc1ccc(NC(=O)[C@@H](N)Cc2ccccc2)cc1-c1nc(-c2ccc(F)cc2)n[nH]1 [Compound 103, (2S)-2-Amino-N-{3-[3-(4-fluorophenyl)-1H-1,2,4-triazol-5-yl]-4-methylphenyl}-3-phenylpropanamide hydrochloride] | 99
